Data taken from patent publication EP4332574A1, “SELF-ASSEMBLED CHEMOSENSORS FOR DETECTING POLYAMINES IN PHYSIOLOGICAL MEDIA AND BIOFLUIDS” (Karlsruher Institut für Technologie, priority 2022, dated 2024).

Experiments:
[1] = Host-dye fluorescence titration (quenching of dye emission on stepwise addition of host); assay type: binding; details: for binding affinity (Ka): host-dye binding interaction in surine, fluorescence monitored at 423 nm
From the text: Addition of the receptor host molecule to the dye solution results in a quenching of the dye emission upon the formation of the self-assembled P5AS-MDAP host-dye fluorescent chemosensor. Thereby, in the sensing assay, in the presence of polyamines, the dye is displaced from the host cavity resulting in a fluorescence "turn-on" signal. The involved processes show very fast binding kinetics and fast signal responses.

[2] = system: P5AS-MDAP host-dye chemosensor; assay: Fluorescence turn-on indicator displacement sensing assay with P5AS-MDAP chemosensor in artificial media; assay type: binding; details: for relative fluorescence intensity changes monitored at 423 nm: addition of P5AS-MDAP
From the text: Thereby, in the sensing assay, in the presence of polyamines, the dye is displaced from the host cavity resulting in a fluorescence "turn-on" signal.
(§1) Fig. 2 Schematic illustration of established cation exchange reactions in systems wherein the known chemosensors become dysfunctional in biologically relevant media such as PBS or urine. At high salt concentrations, the signalling binding pockets of the receptor host molecule are occupied by salts and are no longer available for the detection of relevant analytes. Moreover, chemosensors self-assembled from a receptor host and dye molecules decompose at high salt concentrations as the dye is pushed out of the receptor by the salts. Fig. 3 • (a) Chemical structure of the preferred host molecule P5AS. • (b) Chemical structure of the preferred dye molecule MDAP. • (c) Chemical structure of the preferred dye molecule BrDAP. […] Fig. 8 Relative fluorescence intensity changes monitored at 433 nm on addition of P5AS-BrDAP chemosensor (21.6 µM) to • (a) human urine samples collected from four healthy individuals (diluted two times) and later spiked with several polyamines and polyamine mixtures (each at 5 µM) in order to simulate urine from diseased patients and • (b) human saliva sample collected from a healthy individual (undiluted) and later spiked with several polyamines and polyamine mixtures (each at 5 µM) in order to simulate saliva from diseased patients (microplate reader assay). […] Fig. 9 Relative fluorescence intensity changes monitored at 423 nm upon addition of • (a) P5AS-MDAP host-dye chemosensor and • (b) P5AS-BrDAP host-dye chemosensor to a solution of spermine (spm, 3.3 µM) in neurobasal™ medium.

[3] = system: P5AS-BrDAP host-dye chemosensor; assay: Fluorescence turn-on indicator displacement sensing assay with P5AS-BrDAP chemosensor in artificial media; assay type: binding; details: addition of P5AS-BrDAP
P5AS-BrDAP chemosensor = details: chemosensor 21.6 µM; human urine (diluted two times) and saliva (undiluted), spiked each at 5 µM
From the text: as §1, with “salts.” for “salts. Fig. 3 • (a) Chemical structure of the preferred host molecule P5AS. • (b) Chemical structure of the preferred dye molecule MDAP. • (c) Chemical structure of the preferred dye molecule BrDAP.”

[4] = spermine 3.3 µM in neurobasal medium

BrCCCC[n+]1cc2ccc3c[n+](CCCCBr)cc4ccc(c1)c2c34 [BrDAP, N,N'-bis(4-bromobutyl)-2,7-diazapyrenium dication]
stronger binding affinity for P5AS compared to MDAP [1]: 10^2 times | binding affinity (Ka) [1]: 4.5e+08 M⁻¹ | binding affinity towards P5AS ([1]; order of magnitude, Figure 7a experiments in surine): 10^8 M^-1

C[n+]1cc2ccc3c[n+](C)cc4ccc(c1)c2c34 [MDAP, N,N'-dimethyl-2,7-diazapyrenium dication]
binding affinity (Ka) [1]: 4.9e+06 M⁻¹

NCCCCN [Putrescine, putrescine]
relative fluorescence intensity changes monitored at 423 nm ([2]; polyamine 3.3 µM in surine): does not give rise to any changes in the fluorescence intensity

NCCCCCN [cadaverine]
relative fluorescence intensity changes monitored at 423 nm ([2]; polyamine 3.3 µM in surine): strong fluorescence enhancement | relative fluorescence intensity changes monitored at 423 nm ([3]; polyamine 3.3 µM in surine): no significant fluorescence signal change

NCCCCNCCCN [spermidine]
relative fluorescence intensity changes monitored at 423 nm ([2]; polyamine 3.3 µM in surine): strong fluorescence enhancement | relative fluorescence intensity changes monitored at 423 nm ([3]; polyamine 3.3 µM in surine): no significant fluorescence signal change

NCCCNCCCCNCCCN [spermine]
relative fluorescence intensity changes monitored at 433 nm, spiked versus healthy samples (P5AS-BrDAP chemosensor): clear distinction between the fluorescence signal outputs | relative fluorescence intensity changes monitored at 423 nm ([2]; polyamine 3.3 µM in surine): strong fluorescence enhancement | relative fluorescence intensity changes monitored at 423 nm [2, 4]: strong fluorescence enhancement | time to fluorescence signal turn-on (displacement of MDAP from the host) ([2]; spermine 5.1 µM added to P5AS-MDAP in surine, 423 nm): within a few milliseconds | relative fluorescence intensity changes monitored at 423 nm ([3]; polyamine 3.3 µM in surine): strong fluorescence enhancement | relative fluorescence intensity changes monitored at 423 nm [3, 4]: strong fluorescence enhancement
